Source: patent publication US9670147B2, “Antioxidant inflammation modulators: oleanolic acid derivatives with amino and other modifications at C-17” (REATA PHARMACEUTICALS, INC., priority 2008, dated 2017)

How the values were obtained:
[1] = test system: IFNγ-induced NO production in RAW264.7 macrophages; assay: Suppression of IFNγ-induced NO production (Griess reagent); assay type: cell-based, mouse; conditions: Mus musculus, 2 h pre-treatment, then 20 ng/ml IFNγ for 24 hours
Experimental: (§1) FIGS. 1-34. Inhibition of NO Production. RAW264.7 macrophages were pre-treated with DMSO or drugs at various concentrations (nM) for 2 hours, then treated with 20 ng/ml IFNγ for 24 hours. NO concentration in media was determined using the Griess reagent system; cell viability was determined using WST-1 reagent. FIGS. 49-52. Inhibition of NO Production. RAW264.7 macrophages were pre-treated with DMSO or drugs at various concentrations (nM) for 2 hours, then treated with 20 ng/ml IFNγ for 24 hours. NO concentration in media was determined using the Griess reagent system; cell viability was determined using WST-1 reagent. RAW264.7 macrophages were pre-treated with DMSO or drugs for 2 hours, then treated with recombinant mouse IFNγ (Sigma) for 24 hours. NO concentration in media was determined using the Griess reagent system (Promega). Cell viability was determined using WST-1 reagent (Roche).

RAW264.7 macrophages = assay: Cell viability, WST-1 reagent; assay type: cell-based, mouse; conditions: Mus musculus, 2 h pre-treatment, then 20 ng/ml IFNγ for 24 hours
Experimental: as §1

Row | IC50 [1] | Compound | IC50 (RAW264.7 macrophages)
1 | 16 nM | CC1(C)CC[C@]2(NC(=O)CC(F)(F)F)CC[C@]3(C)[C@H](C(=O)C=C4[C@@]5(C)C=C(C#N)C(=O)C(C)(C)[C@@H]5CC[C@]43C)[C@@H]2C1 [Compound 63179, N-((4aS,6aR,6bS,8aR,12aS,14aR,14bS)-11-cyano-2,2,6a,6b,9,9,12a-heptamethyl-10,14-dioxo-1,2,3,4,4a,5,6,6a,6b,7,8,8a,9,10,12a,14,14a,14b-octadecahydropicen-4a-yl)-3,3,3-trifluoropropanamide] | 100 nM
2 | ~25 nM | COC(=O)N[C@]12CCC(C)(C)C[C@H]1[C@H]1C(=O)C[C@@H]3[C@@]4(C)C=C(C#N)C(=O)C(C)(C)[C@@H]4CC[C@@]3(C)[C@]1(C)CC2 [Compound 63328, methyl (4aS,6aR,6bR,8aR,12aR,12bR,14aR,14bS)-11-cyano-2,2,6a,6b,9,9,12a-heptamethyl-10,14-dioxo-1,2,3,4,4a,5,6,6a,6b,7,8,8a,9,10,12a,12b,13,14,14a,14b-icosahydropicen-4a-ylcarbamate] | –
3 | 10 nM | CC1(C)CC[C@]2(NC(=O)Cc3ccccc3)CC[C@]3(C)[C@H](C(=O)C=C4[C@@]5(C)C=C(C#N)C(=O)C(C)(C)[C@@H]5CC[C@]43C)[C@@H]2C1 [Compound 63244, N-((4aS,6aR,6bS,8aR,12aS,14aR,14bS)-11-cyano-2,2,6a,6b,9,9,12a-heptamethyl-10,14-dioxo-1,2,3,4,4a,5,6,6a,6b,7,8,8a,9,10,12a,14,14a,14b-octadecahydropicen-4a-yl)-2-phenylacetamide] | 200 nM
4 | 33 nM | CN(C)[C@]12CCC(C)(C)C[C@H]1[C@H]1C(=O)C=C3[C@@]4(C)C=C(C#N)C(=O)C(C)(C)[C@@H]4CC[C@@]3(C)[C@]1(C)CC2 [Compound 63245, (4aR,6aS,6bR,8aS,12aS,12bR,14bS)-8a-(dimethylamino)-4,4,6a,6b,11,11,14b-heptamethyl-3,13-dioxo-3,4,4a,5,6,6a,6b,7,8,8a,9,10,11,12,12a,12b,13,14b-octadecahydropicene-2-carbonitrile] | > 200 nM
5 | 26 nM | CC1(C)CC[C@]2(NC(=O)OCc3ccccc3)CC[C@]3(C)[C@H](C(=O)C=C4[C@@]5(C)C=C(C#N)C(=O)C(C)(C)[C@@H]5CC[C@]43C)[C@@H]2C1 [Compound 63174, benzyl-(4aS,6aR,6bS,8aR,12aS,14aR,14bS)-11-cyano-2,2,6a,6b,9,9,12a-heptamethyl-10,14-dioxo-1,2,3,4,4a,5,6,6a,6b,7,8,8a,9,10,12a,14,14a,14b-octadecahydropicen-4a-ylcarbamate] | 80 nM
6 | 7.5 nM | CCC(=O)N[C@]12CCC(C)(C)C[C@H]1[C@H]1C(=O)C=C3[C@@]4(C)C=C(C#N)C(=O)C(C)(C)[C@@H]4CC[C@@]3(C)[C@]1(C)CC2 [Compound 63189, N-((4aS,6aR,6bS,8aR,12aS,14aR,14bS)-11-cyano-2,2,6a,6b,9,9,12a-heptamethyl-10,14-dioxo-1,2,3,4,4a,5,6,6a,6b,7,8,8a,9,10,12a,14,14a,14b-octadecahydropicen-4a-yl)propionamide] | 75 nM

Second part, the compound before the results:

Row | Compound | IC50 [1] | IC50 (RAW264.7 macrophages)
7 | CC1(C)CC[C@]2(NC(=O)C(F)(F)F)CC[C@]3(C)[C@H](C(=O)C=C4[C@@]5(C)C=C(C#N)C(=O)C(C)(C)[C@@H]5CC[C@]43C)[C@@H]2C1 [Compound 63171, N-((4aS,6aR,6bS,8aR,12aS,14aR,14bS)-11-cyano-2,2,6a,6b,9,9,12a-heptamethyl-10,14-dioxo-1,2,3,4,4a,5,6,6a,6b,7,8,8a,9,10,12a,14,14a,14b-octadecahydropicen-4a-yl)-2,2,2-trifluoroacetamide] | 12 nM | 90 nM
8 | CN(C)C(=O)N[C@]12CCC(C)(C)C[C@H]1[C@H]1C(=O)C=C3[C@@]4(C)C=C(C#N)C(=O)C(C)(C)[C@@H]4CC[C@@]3(C)[C@]1(C)CC2 [Compound 63180, 3-((4aS,6aR,6bS,8aR,12aS,14aR,14bS)-11-cyano-2,2,6a,6b,9,9,12a-heptamethyl-10,14-dioxo-1,2,3,4,4a,5,6,6a,6b,7,8,8a,9,10,12a,14,14a,14b-octadecahydropicen-4a-yl)-1,1-dimethylurea] | 13.5 nM | 200 nM
9 | CC1(C)CC[C@]2(NC(=O)C3CC3)CC[C@]3(C)[C@H](C(=O)C[C@@H]4[C@@]5(C)C=C(C#N)C(=O)C(C)(C)[C@@H]5CC[C@]43C)[C@@H]2C1 [Compound 63236, N-((4aS,6aR,6bR,8aR,12aR,12bR,14aR,14bS)-11-cyano-2,2,6a,6b,9,9,12a-heptamethyl-10,14-dioxo-1,2,3,4,4a,5,6,6a,6b,7,8,8a,9,10,12a,12b,13,14,14a,14b-icosahydropicen-4a-yl)cyclopropanecarboxamide] | ~120 nM | > 200 nM
10 | CCNC(=O)N[C@]12CCC(C)(C)C[C@H]1[C@H]1C(=O)C=C3[C@@]4(C)C=C(C#N)C(=O)C(C)(C)[C@@H]4CC[C@@]3(C)[C@]1(C)CC2 [Compound 63173, 1-((4aS,6aR,6bS,8aR,12aS,14aR,14bS)-11-cyano-2,2,6a,6b,9,9,12a-heptamethyl-10,14-dioxo-1,2,3,4,4a,5,6,6a,6b,7,8,8a,9,10,12a,14,14a,14b-octadecahydropicen-4a-yl)-3-ethylurea] | 31 nM | > 200 nM
11 | CC1(C)CC[C@]2(NCC#N)CC[C@]3(C)[C@H](C(=O)C[C@@H]4[C@@]5(C)C=C(C#N)C(=O)C(C)(C)[C@@H]5CC[C@]43C)[C@@H]2C1 [Compound 63222, (4aR,6aR,6bR,8aS,12aS,12bR,14aR,14bR)-8a-(cyanomethylamino)-4,4,6a,6b,11,11,14b-heptamethyl-3,13-dioxo-3,4,4a,5,6,6a,6b,7,8,8a,9,10,11,12,12a,12b,13,14,14a,14b-icosahydropicene-2-carbonitrile] | ~45 nM | > 200 nM
12 | CC1(C)CC[C@]2(NC(=O)N3CCCCC3)CC[C@]3(C)[C@H](C(=O)C=C4[C@@]5(C)C=C(C#N)C(=O)C(C)(C)[C@@H]5CC[C@]43C)[C@@H]2C1 [Compound 63181, N-((4aS,6aR,6bS,8aR,12aS,14aR,14bS)-11-cyano-2,2,6a,6b,9,9,12a-heptamethyl-10,14-dioxo-1,2,3,4,4a,5,6,6a,6b,7,8,8a,9,10,12a,14,14a,14b-octadecahydropicen-4a-yl)piperidine-1-carboxamide] | 4 to 8 nM | 75 nM
13 | CC1(C)CC[C@]2(NC(=O)N3CCOCC3)CC[C@]3(C)[C@H](C(=O)C=C4[C@@]5(C)C=C(C#N)C(=O)C(C)(C)[C@@H]5CC[C@]43C)[C@@H]2C1 [Compound 63188, N-((4aS,6aR,6bS,8aR,12aS,14aR,14bS)-11-cyano-2,2,6a,6b,9,9,12a-heptamethyl-10,14-dioxo-1,2,3,4,4a,5,6,6a,6b,7,8,8a,9,10,12a,14,14a,14b-octadecahydropicen-4a-yl)morpholine-4-carboxamide] | 27 nM | > 200 nM
14 | CCN[C@]12CCC(C)(C)C[C@H]1[C@H]1C(=O)C[C@@H]3[C@@]4(C)C=C(C#N)C(=O)C(C)(C)[C@@H]4CC[C@@]3(C)[C@]1(C)CC2 [Compound 63238, (4aR,6aR,6bR,8aS,12aS,12bR,14aR,14bR)-8a-(ethylamino)-4,4,6a,6b,11,11,14b-heptamethyl-3,13-dioxo-3,4,4a,5,6,6a,6b,7,8,8a,9,10,11,12,12a,12b,13,14,14a,14b-icosahydropicene-2-carbonitrile] | ~120 nM | > 200 nM
15 | CC(=O)N[C@]12CCC(C)(C)C[C@H]1[C@H]1C(=O)C=C3[C@@]4(C)C=C(C#N)C(=O)C(C)(C)[C@@H]4CC[C@@]3(C)[C@]1(C)CC2 [Compound 63170, N-((4aS,6aR,6bS,8aR,12aS,14aR,14bS)-11-cyano-2,2,6a,6b,9,9,12a-heptamethyl-10,14-dioxo-1,2,3,4,4a,5,6,6a,6b,7,8,8a,9,10,12a,14,14a,14b-octadecahydropicen-4a-yl)acetamide] | 10.8 nM | > 200 nM
16 | CNC(=O)N[C@]12CCC(C)(C)C[C@H]1[C@H]1C(=O)C[C@@H]3[C@@]4(C)C=C(C#N)C(=O)C(C)(C)[C@@H]4CC[C@@]3(C)[C@]1(C)CC2 [Compound 63327, 1-((4aS,6aR,6bR,8aR,12aR,12bR,14aR,14bS)-11-cyano-2,2,6a,6b,9,9,12a-heptamethyl-10,14-dioxo-1,2,3,4,4a,5,6,6a,6b,7,8,8a,9,10,12a,12b,13,14,14a,14b-icosahydropicen-4a-yl)-3-methylurea] | ~100 nM | –
17 | CC1(C)CC[C@]2(NC(=O)Nc3ccccc3)CC[C@]3(C)[C@H](C(=O)C=C4[C@@]5(C)C=C(C#N)C(=O)C(C)(C)[C@@H]5CC[C@]43C)[C@@H]2C1 [Compound 63249, 1-((4aS,6aR,6bS,8aR,12aS,14aR,14bS)-11-cyano-2,2,6a,6b,9,9,12a-heptamethyl-10,14-dioxo-1,2,3,4,4a,5,6,6a,6b,7,8,8a,9,10,12a,14,14a,14b-octadecahydropicen-4a-yl)-3-phenylurea] | – | 50 nM
18 | CC(=O)N[C@]12CCC(C)(C)C[C@H]1[C@H]1C(=O)C[C@@H]3[C@@]4(C)C=C(C#N)C(=O)C(C)(C)[C@@H]4CC[C@@]3(C)[C@]1(C)CC2 [Compound 63321, N-((4aS,6aR,6bR,8aR,12aR,12bR,14aR,14bS)-11-cyano-2,2,6a,6b,9,9,12a-heptamethyl-10,14-dioxo-1,2,3,4,4a,5,6,6a,6b,7,8,8a,9,10,12a,12b,13,14,14a,14b-icosahydropicen-4a-yl)acetamide] | ~70 nM | –
19 | CC1(C)CC[C@]2(NC(=O)C(F)(F)F)CC[C@]3(C)[C@H](C(=O)C[C@@H]4[C@@]5(C)C=C(C#N)C(=O)C(C)(C)[C@@H]5CC[C@]43C)[C@@H]2C1 [Compound 63322, N-((4aS,6aR,6bR,8aR,12aR,12bR,14aR,14bS)-11-cyano-2,2,6a,6b,9,9,12a-heptamethyl-10,14-dioxo-1,2,3,4,4a,5,6,6a,6b,7,8,8a,9,10,12a,12b,13,14,14a,14b-icosahydropicen-4a-yl)-2,2,2-trifluoroacetamide] | ~50 nM | –
